Measurements: patent publication US8192962B2, “Processes for detecting toxic substances” (Daikin Industries, Ltd., priority 2001, dated 2012)

System: Metabolism protein genes
Assay: DNA chip mRNA expression in yeast, metabolism protein genes (Table 7)
Format: cell-based, Saccharomyces cerevisiae S288C
Experimental: Yeast (Saccharomyces cerevisiae S288C (α SUC2mal mel gap2 CUP1)) were incubated at 25° C. on YPD medium (yeast extract 1%, polypepton 2%, glucose 2%). One of toxic chemical substances was added to the cells at logarithmic growth phase, and the cells were further incubated for two hours. Cells were cultured without any chemical substance in the same condition, and were used as control. Concentrations of the chemical substances were defined to inhibit the growth of the yeast but not lead to death.
After completion of the incubation, the culture was centrifuged to collect the cells. To the cells, sodium acetate buffer (50 mM sodium acetate, 10 mM EDTA, 1% SDS) was added, and the mixture was shaken at 65° C. for five minutes, followed by returning to room temperature, and obtaining the supernatant, of which the procedures were repeated two times. To the supernatant, ½ amount of a solution of phenol/chloroform was added, and the mixture was centrifuged to give a supernatant, which was added with an equal amount of chloroform, and the mixture was centrifuged to give a supernatant. To the supernatant, an equal amount of isopropanol containing 0.3 M sodium acetate was added, and the mixture was allowed to stand at room temperature for 30 minutes, after which the mixture was centrifuged to give a sediment of the whole RNAs. Seventy % ethanol was added to the sediment, and the mixture was again centrifuged to give a sediment, which was then dried and dissolved in water. mRNA was isolated from the whole RNAs as followings. In view of the fact that a poly A chain is attached to the 3′ terminus of mRNA, a polynucleotide having a poly T structure which was immobilized on the surface of latex beads was used to trap the mRNA, and then the mRNA was washed and eluted with spine column (Oligotex-dT30<Super>mRNA Purification Kit, Takara). Reverse transcription of the mRNA was conducted with a reverse transcriptase (Super Script II Reverse Transcriptase; catalogue No. 18064-014, GibcoBRL) using fluorescence-labeled nucleotides to give cDNAs that were introduced with Cy3-dUTP or Cy5-dUTP during the reverse transcription.
The labeled cDNAs were dissolved in TE buffer (10mM Tris-HCl/1 mM EDTA, pH8.0), and the solution was dropped on the DNA chip containing the whole genes of yeast (DNA Chip Research Inc. Japan) so that the cDNAs were hybridized on the DNA chip at 65° C. for over 12 hours. The fluoresces intensity of the DNA chip was read with a scanner, and the ratio relative to the fluorescence intensity resulting from the absence of chemical substance was estimated as the following, which is shown in Tables 1 to 9: […]

Structure (SMILES): N#Cc1c(Cl)c(Cl)c(Cl)c(C#N)c1Cl [(9), 2,4,5,6-tetrachloro-1,3-benzenedicarbonitrile]
- The level of expressed mRNA in the presence of chemical substance/The level of expressed mRNA in the absence of chemical substance (yeast gene YAL012W): 4.7
- The level of expressed mRNA in the presence of chemical substance/The level of expressed mRNA in the absence of chemical substance (yeast gene YAL038W): 0.1
- The level of expressed mRNA in the presence of chemical substance/The level of expressed mRNA in the absence of chemical substance (yeast gene YAL044C): 0.4
- The level of expressed mRNA in the presence of chemical substance/The level of expressed mRNA in the absence of chemical substance (yeast gene YAL054C): 8.9
- The level of expressed mRNA in the presence of chemical substance/The level of expressed mRNA in the absence of chemical substance (yeast gene YAR071W): 0.3
- The level of expressed mRNA in the presence of chemical substance/The level of expressed mRNA in the absence of chemical substance (yeast gene YBL001C): 1.5
- The level of expressed mRNA in the presence of chemical substance/The level of expressed mRNA in the absence of chemical substance (yeast gene YBL033C): 6.6
- The level of expressed mRNA in the presence of chemical substance/The level of expressed mRNA in the absence of chemical substance (yeast gene YBL086C): 3.3
- level of expressed mRNA in the presence/in the absence of chemical substance (yeast gene YBR003W): 1.0
- level of expressed mRNA in the presence/in the absence of chemical substance (yeast gene YBR011C): 2.2
- The level of expressed mRNA in the presence of chemical substance/The level of expressed mRNA in the absence of chemical substance (yeast gene YBR014C): 1.3
- The level of expressed mRNA in the presence of chemical substance/The level of expressed mRNA in the absence of chemical substance (yeast gene YBR023C): 0.3
- The level of expressed mRNA in the presence of chemical substance/The level of expressed mRNA in the absence of chemical substance (yeast gene YBR029C): 2.0
- The level of expressed mRNA in the presence of chemical substance/The level of expressed mRNA in the absence of chemical substance (yeast gene YBR035C): 2.2
- The level of expressed mRNA in the presence of chemical substance/The level of expressed mRNA in the absence of chemical substance (yeast gene YBR068C): 0.8
- The level of expressed mRNA in the presence of chemical substance/The level of expressed mRNA in the absence of chemical substance (yeast gene YBR183W): 0.4
- The level of expressed mRNA in the presence of chemical substance/The level of expressed mRNA in the absence of chemical substance (yeast gene YBR222C): 0.7
- The level of expressed mRNA in the presence of chemical substance/The level of expressed mRNA in the absence of chemical substance (yeast gene YBR256C): 18.1
- The level of expressed mRNA in the presence of chemical substance/The level of expressed mRNA in the absence of chemical substance (yeast gene YBR296C): 0.4
- The level of expressed mRNA in the presence of chemical substance/The level of expressed mRNA in the absence of chemical substance (yeast gene YCL009C): 0.9
- The level of expressed mRNA in the presence of chemical substance/The level of expressed mRNA in the absence of chemical substance (yeast gene YCL064C): 1.7
- level of expressed mRNA in the presence/in the absence of chemical substance (yeast gene YCR010C): 0.9
- level of expressed mRNA in the presence/in the absence of chemical substance (yeast gene YCR034W): 0.1
- The level of expressed mRNA in the presence of chemical substance/The level of expressed mRNA in the absence of chemical substance (yeast gene YCR036W): 2.6
- The level of expressed mRNA in the presence of chemical substance/The level of expressed mRNA in the absence of chemical substance (yeast gene YCR048W): 0.8
- The level of expressed mRNA in the presence of chemical substance/The level of expressed mRNA in the absence of chemical substance (yeast gene YCR098C): 1.4
- The level of expressed mRNA in the presence of chemical substance/The level of expressed mRNA in the absence of chemical substance (yeast gene YDL124W): 3.3
- The level of expressed mRNA in the presence of chemical substance/The level of expressed mRNA in the absence of chemical substance (yeast gene YDR009W): 1.3
- The level of expressed mRNA in the presence of chemical substance/The level of expressed mRNA in the absence of chemical substance (yeast gene YDR019C): 0.4
- level of expressed mRNA in the presence/in the absence of chemical substance (yeast gene YDR050C): 0.4
- level of expressed mRNA in the presence/in the absence of chemical substance (yeast gene YDR123C): 0.5
- level of expressed mRNA in the presence/in the absence of chemical substance (yeast gene YDR178W): 0.9
- level of expressed mRNA in the presence/in the absence of chemical substance (yeast gene YDR277C): 0.2
- level of expressed mRNA in the presence/in the absence of chemical substance (yeast gene YDR284C): 0.9
- level of expressed mRNA in the presence/in the absence of chemical substance (yeast gene YDR345C): 0.2
- The level of expressed mRNA in the presence of chemical substance/The level of expressed mRNA in the absence of chemical substance (yeast gene YDR380W): 0.2
- level of expressed mRNA in the presence/in the absence of chemical substance (yeast gene YDR400W): 1.1
- level of expressed mRNA in the presence/in the absence of chemical substance (yeast gene YDR408C): 0.3
- level of expressed mRNA in the presence/in the absence of chemical substance (yeast gene YDR483W): 0.4
- The level of expressed mRNA in the presence of chemical substance/The level of expressed mRNA in the absence of chemical substance (yeast gene YDR487C): 2.7
- The level of expressed mRNA in the presence of chemical substance/The level of expressed mRNA in the absence of chemical substance (yeast gene YDR497C): 0.4
- The level of expressed mRNA in the presence of chemical substance/The level of expressed mRNA in the absence of chemical substance (yeast gene YDR502C): 1.6
- The level of expressed mRNA in the presence of chemical substance/The level of expressed mRNA in the absence of chemical substance (yeast gene YDR516C): 1.8
- level of expressed mRNA in the presence/in the absence of chemical substance (yeast gene YEL063C): 0.8
- The level of expressed mRNA in the presence of chemical substance/The level of expressed mRNA in the absence of chemical substance (yeast gene YER026C): 0.9
- The level of expressed mRNA in the presence of chemical substance/The level of expressed mRNA in the absence of chemical substance (yeast gene YER053C): 1.3
- The level of expressed mRNA in the presence of chemical substance/The level of expressed mRNA in the absence of chemical substance (yeast gene YER069W): 0.8
- level of expressed mRNA in the presence/in the absence of chemical substance (yeast gene YER081W): 1.8
- The level of expressed mRNA in the presence of chemical substance/The level of expressed mRNA in the absence of chemical substance (yeast gene YER096W): 7.5
- level of expressed mRNA in the presence/in the absence of chemical substance (yeast gene YER120W): 0.8
